Data reported in ChEMBL document CHEMBL3507680, “University of Dundee, Gates Library screen for HepG2 cell viability”.

Assay: Human HepG2 cell viability assay in 384 well format
Assay type: toxicity, cell-based
Design: dose 125 nL, time 70.5 hour; cytotoxicity at 70.5 h: concentration not given beside the values
Settings: HepG2 cells, read-out: Inhibition

Cc1nnsc1CN1C[C@H]2CC[C@@H]1CN(Cc1ccccc1)C2
cytotoxicity at 70.5 h: -1.08%

CCCOc1cccc(C(=O)Oc2cc(=O)n3cccc(C)c3n2)c1
cytotoxicity at 70.5 h: -12.8%

Cc1cc(=O)n(CC(=O)NCC2CCCO2)c(-c2ccc(F)cc2)n1 (stereo not given)
cytotoxicity at 70.5 h: 13%

COCCCN(C)C(=O)c1nnn(-c2ccccc2Cl)c1C
cytotoxicity at 70.5 h: 1.5%

Cc1cc(CN(C)C(=O)NC2CCN(Cc3ccccn3)CC2)no1
cytotoxicity at 70.5 h: 1.36%

CNC(=O)N1CCc2cc(C(=O)NCC3CC3)c(NC(C)C)nc2CC1
cytotoxicity at 70.5 h: -7.34%

NC(=O)Cc1ccc(OCc2noc(C(=O)N3CCCC3)n2)cc1
cytotoxicity at 70.5 h: -23.4%

COC(=O)N1CCN(CCCc2nnnn2-c2ccccc2)CC1
cytotoxicity at 70.5 h: 8.7%

CCn1nc(C(C)C)cc1C(=O)N1CCOc2ccc(OC)cc21
cytotoxicity at 70.5 h: -5.2%

CC(C)n1ccc2cc(C(=O)Nc3nc[nH]n3)ccc21
cytotoxicity at 70.5 h: -15.9%

CC(C)c1noc(Cn2ncn3cccc3c2=O)n1
cytotoxicity at 70.5 h: -6.57%

Cc1cc(CNC2(c3ccc(Cl)cc3)CC2)no1
cytotoxicity at 70.5 h: -2.02%

CC(Cn1cccn1)NCc1nc(-c2ccco2)no1 (stereo not given)
cytotoxicity at 70.5 h: -16.5%

CCCN(CCO)C(=O)C1CCC(=O)N(Cc2ccc(Cl)cc2)C1 (stereo not given)
cytotoxicity at 70.5 h: -0.953%

Cc1noc([C@H]2COC[C@H]3CN(C(=O)Cc4ccsc4)C[C@H]32)n1
cytotoxicity at 70.5 h: -20.1%

c1ccc(N2CCCC2)c(NCc2ccncc2)c1
cytotoxicity at 70.5 h: -39.9%

Cc1cc(O)nc(C2CCN(C(=O)CO)CC2)n1
cytotoxicity at 70.5 h: -3.54%

CCc1ncc(C(=O)N(C)Cc2cc(-c3ccncc3)no2)cn1
cytotoxicity at 70.5 h: 35.7%

CCN1CCN(c2nc(C(C)C)nc3c(C)nn(CC)c23)CC1
cytotoxicity at 70.5 h: 13.6%

CC1(C)OC(=O)N(CC(=O)N2CCC(c3ccccc3F)C2)C1=O (stereo not given)
cytotoxicity at 70.5 h: -3.83%

COC(=O)Cn1cccc(S(=O)(=O)N2CCC(C)CC2)c1=O
cytotoxicity at 70.5 h: 41%

CCn1c(C)nnc1SCCNC(=O)c1cccc2ccnn12
cytotoxicity at 70.5 h: 14.1%

Cc1nc(CN2C(=O)COC3(CCN(C(N)=O)CC3)C2C)cs1 (stereo not given)
cytotoxicity at 70.5 h: 3.95%

COCCCc1nc(-c2ccc(S(=O)(=O)N3CCCC3)cc2)cs1
cytotoxicity at 70.5 h: -4.93%

Cc1ccc(F)cc1S(=O)(=O)Nc1ccc2c(C(=O)O)c[nH]c2c1
cytotoxicity at 70.5 h: 1.03%

Cc1ccc(CNC(=O)Cn2nc(-c3ccc(F)cc3)oc2=O)cc1F
cytotoxicity at 70.5 h: -7.42%

O=c1cc(N2CCNCC2)cnn1Cc1noc(C2CCCC2)n1
cytotoxicity at 70.5 h: -23.8%

COc1ncccc1NC(=O)NCC1CC1
cytotoxicity at 70.5 h: -3.58%

O=c1cc(Cn2cncn2)nc2n1CCCN(CCN1CCCC1)C2
cytotoxicity at 70.5 h: -9.08%

c1ccc(COCCN2CCc3[nH]cnc3C2c2ccoc2)cc1 (stereo not given)
cytotoxicity at 70.5 h: 26%

OC(COCc1ccco1)CN1CCc2c(ncn2C2CC2)C1 (stereo not given)
cytotoxicity at 70.5 h: 1.85%

CC(C)(C)C(=O)NCc1cnn2ccccc12
cytotoxicity at 70.5 h: -6.45%

COc1ccc(CN(Cc2cnc(N)nc2)CC2CCCO2)c(OC)c1 (stereo not given)
cytotoxicity at 70.5 h: -2.54%

N#CC1CCN(C(=O)CN2CC(c3ccccc3)CC2=O)CC1 (stereo not given)
cytotoxicity at 70.5 h: -4.6%

Clc1nc2ccccn2c1CNCC1CN(C2CC2)CCO1 (stereo not given)
cytotoxicity at 70.5 h: 4.07%

Cc1ccccc1OCCC(=O)N1CCC(c2nncn2C)CC1
cytotoxicity at 70.5 h: -0.859%

CC(C)n1ccc2c(NC(=O)c3n[nH]c4c3CCC4)cccc21
cytotoxicity at 70.5 h: 7.25%

COc1ccccc1OC1CN(C(=O)Cc2c(C)nc(C)[nH]c2=O)C1
cytotoxicity at 70.5 h: -2.42%

CC(C)O[C@H]1CN(C(=O)CCN2CCCCO2)C[C@@H]1O
cytotoxicity at 70.5 h: 11.2%

CN1CCNCC(Cc2cnc3ccccc3c2)C1 (stereo not given)
cytotoxicity at 70.5 h: -3.02%

CN(C)C(=O)CN1CCCC12CCCN(c1ncc(F)cn1)C2 (stereo not given)
cytotoxicity at 70.5 h: -4.71%

Cc1ccncc1C(=O)N1C[C@@H]2CN(c3ncccn3)C[C@]2(C(=O)O)C1
cytotoxicity at 70.5 h: -5.72%

Cc1cnn(CC2CCCN2C(=O)c2cc3ccccc3[nH]c2=O)c1 (stereo not given)
cytotoxicity at 70.5 h: 8.93%

COCCC(=O)N1Cc2nc3c(C)c(-c4cccs4)nn3c(O)c2C1
cytotoxicity at 70.5 h: -14.7%

CCCC(=O)N1CCCC(Cn2cc(-c3ccc(F)cc3)nn2)C1 (stereo not given)
cytotoxicity at 70.5 h: -11.1%
